Results as given in patent US4916214A, “Cationic complexes of technetium-99m” (Amersham International plc., priority 1987, dated 1990).
Like-named read-outs stand apart in the source and are kept apart here.

Columns and labels:
[1] = rat, in vivo
Procedure: (§1) In vivo biodistribution: 0.1 ml Tc^99m prep was injected i.v. into a laterial tail vein of 6 anaesthetised rats.
(§2) At 2 minutes and 60 minutes post-injection, 3 rats were sacrificed by decapitation, bled from the neck and dissected. The following organs were removed at dissection: kidney; bladder(+ urine), lung, liver, spleen, stomach, small intestine, large intestine, brain (weighed), heart (weighed), thyroid and samples of blood (weighed) and muscle (weighed), the residual carcass and the tail (injection site). Subsequently samples were counted in an automatic twin crystal gamma counter.
(§3) Percentage biodistribution of injected material was calculated (after correction for background) for all organs using the formula: [formula]
(§4) Since only samples of muscle and blood were taken, the percentage in these tissues was calculated assuming blood and muscle to represent 5.8 and 43% of total animal weight respectively using the formula: [formula]

[2] = Animal biodistribution of 99mTc complexes in guinea pigs; assay type: in vivo, guinea pig; conditions: guinea pigs; for Heart / Heart/Blood Counts/Gram ratio / Heart/Liver Counts/Gram ratio / Heart/Muscle Counts/Gram ratio / Liver: Table VIII, [TcL3 ]^+ complex of the ligand;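 for all read-outs here: Heart, liver and kidney plus urine values are percent of the injected material, background-corrected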
Procedure: as §3, §4
Since only samples of muscle and blood were taken, the percentage in these tissues was calculated assuming blood and muscle to represent 5.8 and 43% of total animal weight respectively using the formula: [formula] where CF= 0.058 for blood

[3] = Animal biodistribution of 99mTc complexes in rats (i.v. injection, organ counting); conditions: Table VII, nitrosyl complex [Tc(NO)Cl2 L2 ]^- of the ligand, 60 min p.i.
Procedure: as §1, §2, §3, §4

[4] = from Table VIII, [TcL3 ]^+, 60'

Row | Heart ([2]; 2 min p.i.) | Heart/Blood Counts/Gram ratio ([2]; 2 min p.i.) | Heart/Liver Counts/Gram ratio ([2]; 2 min p.i.) | Heart/Muscle Counts/Gram ratio ([2]; 2 min p.i.) | Liver ([2]; 2 min p.i.) | Heart ([2]; 60 min p.i.) | Heart/Blood Counts/Gram ratio ([2]; 60 min p.i.) | Heart/Liver Counts/Gram ratio ([2]; 60 min p.i.) | Heart/Muscle Counts/Gram ratio ([2]; 60 min p.i.) | Liver ([2]; 60 min p.i.) | Compound | further results
1 | 0.98 % injected dose | 1.63 | 0.82 | 8.18 | 24.0 % injected dose | 0.83 % injected dose | 10.5 | 0.72 | 4.29 | 13.3 % injected dose | COCP(C)CCP(C)COC (stereo not drawn) [Example 1, MeP(CH2 OMe)-(CH2)2 -(Me)P(CH2 OMe)] | heart uptake and retention compared with dmpe complex [1]: significantly higher heart uptake and retention at 2' and 60'; heart/liver ratio compared with dmpe complex [1]: significantly increased heart/liver ratio at 60'; liver retention compared with dmpe complex [1]: reduced liver retention at 60'; Heart ([1]; 2 min): 1.71 % injected dose; Heart/Blood Counts/Gram ratio ([1]; 2 min): 4.19; Heart/Liver Counts/Gram ratio ([1]; 2 min): 1.81; Heart/Muscle Counts/Gram ratio ([1]; 2 min): 6.61; Liver ([1]; 2 min): 12.6 % injected dose; Heart ([1]; 60 min): 1.42 % injected dose; Heart/Blood Counts/Gram ratio ([1]; 60 min): 25.7; Heart/Liver Counts/Gram ratio ([1]; 60 min): 10.8; Heart/Muscle Counts/Gram ratio ([1]; 60 min): 5.46; Liver ([1]; 60 min): 1.53 % injected dose; heart uptake and retention compared with dmpe complex ([2]; from Table VIII, [TcL3 ]^+, 2' and 60'): increased heart uptake and retention at 2' and 60'; heart/blood ratio compared with dmpe complex [2, 4]: better; heart/liver ratio compared with dmpe complex [2, 4]: better; heart/muscle ratio compared with dmpe complex [2, 4]: better; liver retention compared with dmpe complex [2, 4]: much lower liver retention at 60'
2 | 0.53 % injected dose | 0.42 | 0.30 | 6.11 | 38.0 % injected dose | 0.38 % injected dose | 3.27 | 0.13 | 4.12 | 36.8 % injected dose | CP(C)CCP(C)C [dmpe, di(dimethylphosphino) ethane, reference compound] | Heart/Liver Counts/Gram ratio [3]: 1.52
